According to US10774074B2, “2-(1-heteroarylpiperazin-4-yl)methyl-1,4-benzodioxane derivatives as alpha2C antagonists” (ORION CORPORATION, priority 2015, dated 2020):
Where a name gives a salt, the structure may show the parent alone. Blank lines part the entries; values can stand above or below the molecule they belong to.

Experiments:
human alpha2C receptors = target: T1, human alpha2C receptors (Homo sapiens, UniProt P18825); assay: Determination of alpha2C antagonistic activity in vitro (FLIPR calcium assay, CHO cells); format: cell-based; details: for Kb: Kb calculated with the Cheng-Prusoff equation from IC50, adrenaline as agonist, CHO cells, human alpha2C, read-out: Alpha 2C Adrenaline Kb; for IC50: antagonism of adrenaline stimulation, CHO cells stably transfected with human alpha2C receptor and Gα16, intracellular calcium (FLIPR), read-out: Alpha 2C Adrenaline IC50
T1 construct: host or cells: CHO cells, cotransfected with pCEP-Gα16
T1 sequence (P18825 1-462): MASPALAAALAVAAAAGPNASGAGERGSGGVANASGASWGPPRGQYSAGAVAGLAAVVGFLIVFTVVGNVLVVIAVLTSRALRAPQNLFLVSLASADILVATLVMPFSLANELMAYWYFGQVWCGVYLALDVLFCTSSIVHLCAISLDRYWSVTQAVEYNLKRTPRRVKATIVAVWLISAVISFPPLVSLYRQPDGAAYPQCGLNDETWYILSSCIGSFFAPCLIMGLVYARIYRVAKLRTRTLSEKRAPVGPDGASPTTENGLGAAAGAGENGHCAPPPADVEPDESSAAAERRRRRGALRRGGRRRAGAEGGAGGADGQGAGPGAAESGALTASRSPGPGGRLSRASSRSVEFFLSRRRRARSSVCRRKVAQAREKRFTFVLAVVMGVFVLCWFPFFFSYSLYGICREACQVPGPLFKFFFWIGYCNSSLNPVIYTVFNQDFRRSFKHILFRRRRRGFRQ
Method: (§1) EXPERIMENT 1: Determination of alpha2A and alpha2C Antagonistic Activity In Vitro
(§2) Chinese hamster ovary (CHO) cells stably transfected with human alpha2A or alpha2C receptors (University of Turku, Finland) were cotransfected with the expression vector pCEP-Gα16 (Molecular Devices, CA, USA) were used in this experiment. The cells were maintained at 37° C. in a 5% CO2/95% air atmosphere. The cells were cultured in HAM F-12 medium supplemented with 10% FCS, 25 mM HEPES, 100 IU/ml penicillin, 100 µg/ml streptomycin, 500 μg/ml geneticin and 240 μg/ml hygromycin B. The cells were subcultured twice weekly with 0.25% trypsin and 1 mM EDTA. The subculture ratio was 1:5-1:20. The growth medium was changed every 2 or 3 days. All cell culture reagents were from Gibco. The day before the experiment the cells were plated into black-walled, clear bottom 384-well plates at a density of 10,000 cells/well.
(§3) The growth medium was removed and the cells were incubated with the test compounds and the FLIPR Calcium 6 Assay reagent (Molecular Devices, CA, USA) for 2 h at 37° C. in dark. The test compounds (concentrations in cells 100 pM-10 μM) were dissolved in Probenecid-Ringer consisting of 150 mM NaCl, 3 mM KCl, 1.2 mM MgCl2, 1 mM CaCl2, 5 mM glucose, 20 mM HEPES and 2.5 mM probenecid (pH 7.4 adjusted with 1.0 M NaOH). The osmolarity was adjusted to 322 milliosmoles with Osmostat® OM-6020 osmometer (DIC Kyoto Daiichi Kagagu Co. Ltd, Japan). […] All experiments were performed at 37° C. For agonism measurements the test compounds dissolved in Probenecid-Ringer were applied by FLIPR Tetra at 15 s time point. In order to determine antagonism, the cells were stimulated either with 100 nM adrenaline or noradrenaline and the test compounds were added to the cells 2 h before the experiment with the FLIPR Calcium 6 Assay reagent. […] Typically, there were four replicates at each concentration and six different dose levels. For example, if the number of plates from which results were obtained was three, 72 (4*6*3) wells were thus measured to construct dose-response relationship. The samples were excited at 485 nm and emission was detected at 525 nm with a 515 nm cut-off filter. The minimum fluorescence value subtracted from the maximum value for each well was used in the calculations. ScreenWorks version 4.0 software was used for analyzing the results. Fitting of the antagonist dose-response results was performed with the free Hill equation and the IC50 values were fitted with IDBS XE software using model 200: y=(A+(B/(1+((x/C)^D)))), where A is the curve maximum, B the curve minimum and C equals the EC50 value. D is slope factor (Hill). Kb was calculated with the Cheng-Prusoff equation Kb=A/((B/C)+1), where A is the IC50 of antagonist, B the concentration of agonist and C the EC50 of the agonist.

human alpha2A receptors = target: T2, human alpha2A receptors (Homo sapiens, UniProt P08913); assay: Determination of alpha2A antagonistic activity in vitro (FLIPR calcium assay, CHO cells); format: cell-based; details: for Kb: Kb calculated with the Cheng-Prusoff equation from IC50, adrenaline as agonist, CHO cells, human alpha2A, read-out: Alpha 2A Adrenaline Kb; for IC50: antagonism of adrenaline stimulation, CHO cells stably transfected with human alpha2A receptor and Gα16, intracellular calcium (FLIPR), read-out: Alpha 2A Adrenaline IC50
T2 construct: host or cells: CHO cells, cotransfected with pCEP-Gα16
T2 sequence (P08913 1-465): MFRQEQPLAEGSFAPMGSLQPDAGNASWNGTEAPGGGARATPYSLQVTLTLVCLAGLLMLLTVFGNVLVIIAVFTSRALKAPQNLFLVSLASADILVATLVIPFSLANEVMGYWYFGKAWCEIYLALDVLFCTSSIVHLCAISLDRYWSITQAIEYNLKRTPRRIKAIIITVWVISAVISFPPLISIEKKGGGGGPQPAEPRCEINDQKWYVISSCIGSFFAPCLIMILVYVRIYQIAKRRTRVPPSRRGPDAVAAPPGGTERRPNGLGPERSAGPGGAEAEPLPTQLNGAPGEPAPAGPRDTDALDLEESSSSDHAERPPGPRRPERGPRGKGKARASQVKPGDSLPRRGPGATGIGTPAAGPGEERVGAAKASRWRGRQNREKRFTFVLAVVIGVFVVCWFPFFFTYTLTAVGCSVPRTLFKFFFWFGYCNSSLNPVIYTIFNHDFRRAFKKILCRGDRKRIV
Method: as §1, §2, §3

Kb (human alpha2C receptors): 4210 nM
IC50 (human alpha2C receptors): 424 nM
Kb (human alpha2A receptors): > 449 nM
IC50 (human alpha2A receptors): > 10 µM
Structure (SMILES): CC(=O)Nc1nsnc1N1CCN(C[C@H]2COc3ccccc3O2)CC1 [Compound of example 16, (S)—N-(4-(4-((2,3-Dihydrobenzo[b][1,4]dioxin-2-yl)methyl)piperazin-1-yl)-1,2,5-thiadiazol-3-yl)acetamide]

Kb (human alpha2C receptors): < 0.1 nM
IC50 (human alpha2C receptors): < 0.01 nM
Kb (human alpha2A receptors): > 449 nM
IC50 (human alpha2A receptors): > 10 µM
Structure (SMILES): CC1(C)CCN(c2nsnc2N2CCN(C[C@H]3COc4ccccc4O3)CC2)C1=O [Compound of example 17, (S)-1-(4-(4-((2,3-Dihydrobenzo[b][1,4]dioxin-2-yl)methyl)piperazin-1-yl)-1,2,5-thiadiazol-3-yl)-3,3-dimethylpyrrolidin-2-one]

Kb (human alpha2C receptors): 0.38 nM
IC50 (human alpha2C receptors): 0.04 nM
Kb (human alpha2A receptors): > 449 nM
IC50 (human alpha2A receptors): > 10 µM
Structure (SMILES): CC1CCN(c2nsnc2N2CCN(C[C@H]3COc4ccccc4O3)CC2)C1=O (stereo partly drawn) [Compound of example 21, 1-(4-(4-(((S)-2,3-Dihydrobenzo[b][1,4]dioxin-2-yl)methyl)piperazin-1-yl)-1,2,5-thiadiazol-3-yl)-3-methylpyrrolidin-2-one]

Kb (human alpha2C receptors): 1350 nM
IC50 (human alpha2C receptors): 136 nM
Kb (human alpha2A receptors): > 449 nM
IC50 (human alpha2A receptors): > 10 µM
Structure (SMILES): COCc1nc(N2CCN(C[C@H]3COc4ccccc4O3)CC2)no1 [Compound of example 23, (S)-3-(4-((2,3-Dihydrobenzo[b][1,4]dioxin-2-yl)methyl)piperazin-1-yl)-5-(methoxymethyl)-1,2,4-oxadiazole]

Kb (human alpha2C receptors): 0.546 nM
IC50 (human alpha2C receptors): 0.055 nM
Kb (human alpha2A receptors): 385 nM
IC50 (human alpha2A receptors): 8.57 µM
Structure (SMILES): O=C1CCCN1c1nsnc1N1CCN(C[C@H]2COc3ccccc3O2)CC1 [Compound of example 24, (S)-1-(4-(4-((2,3-Dihydrobenzo[b][1,4]dioxin-2-yl)methyl)piperazin-1-yl)-1,2,5-thiadiazol-3-yl)pyrrolidin-2-one]

Kb (human alpha2C receptors): 183 nM
IC50 (human alpha2C receptors): 18.5 nM
Kb (human alpha2A receptors): > 449 nM
IC50 (human alpha2A receptors): > 10 µM
Structure (SMILES): O=C1OCCN1c1nsnc1N1CCN(C[C@H]2COc3ccccc3O2)CC1 [Compound of example 26, (S)-3-(4-(4-((2,3-Dihydrobenzo[b][1,4]dioxin-2-yl)methyl)piperazin-1-yl)-1,2,5-thiadiazol-3-yl)oxazolidin-2-one]

Kb (human alpha2C receptors): 4210 nM
IC50 (human alpha2C receptors): 424 nM
Kb (human alpha2A receptors): > 449 nM
IC50 (human alpha2A receptors): > 10 µM
Structure (SMILES): CNC(=O)c1nsnc1N1CCN(C[C@H]2COc3ccccc3O2)CC1 [Compound of example 29, (S)-4-(4-((2,3-Dihydrobenzo[b][1,4]dioxin-2-yl)methyl)piperazin-1-yl)-N-methyl-1,2,5-thiadiazole-3-carboxamide hydrochloride]

Kb (human alpha2C receptors): 1.66 nM
IC50 (human alpha2C receptors): 0.17 nM
Kb (human alpha2A receptors): > 449 nM
IC50 (human alpha2A receptors): > 10 µM
Structure (SMILES): Cc1nsc(N2CCN(C[C@H]3COc4ccccc4O3)CC2)c1N1CCCC1=O [Compound of example 31, (S)-1-(5-(4-((2,3-Dihydrobenzo[b][1,4]dioxin-2-yl)methyl)piperazin-1-yl)-3-methylisothiazol-4-yl)pyrrolidin-2-one]

Kb (human alpha2C receptors): 401 nM
IC50 (human alpha2C receptors): 40.4 nM
Kb (human alpha2A receptors): > 449 nM
IC50 (human alpha2A receptors): > 10 µM
Structure (SMILES): CC(=O)c1nsnc1N1CCN(C[C@H]2COc3ccccc3O2)CC1 [Compound of example 33, (S)-1-(4-(4-((2,3-Dihydrobenzo[b][1,4]dioxin-2-yl)methyl)piperazin-1-yl)-1,2,5-thiadiazol-3-yl)ethanone]

More lines, now with the values behind:

Structure (SMILES): c1cnc(Nc2nsnc2N2CCN(C[C@H]3COc4ccccc4O3)CC2)nc1 [Compound of example 18, (S)-4-(4-((2,3-Dihydrobenzo[b][1,4]dioxin-2-yl)methyl)piperazin-1-yl)-N-(pyrimidin-2-yl)-1,2,5-thiadiazol-3-amine]
Kb (human alpha2C receptors): 30.1 nM
IC50 (human alpha2C receptors): 3.03 nM
Kb (human alpha2A receptors): 233 nM
IC50 (human alpha2A receptors): 5.19 µM

Structure (SMILES): c1ccc2c(c1)OC[C@H](CN1CCN(c3nsnc3Nc3ccncn3)CC1)O2 [Compound of example 19, (S)-4-(4-((2,3-Dihydrobenzo[b][1,4]dioxin-2-yl)methyl)piperazin-1-yl)-N-(pyrimidin-4-yl)-1,2,5-thiadiazol-3-amine]
Kb (human alpha2C receptors): < 0.1 nM
IC50 (human alpha2C receptors): < 0.01 nM
Kb (human alpha2A receptors): 459 nM
IC50 (human alpha2A receptors): 10.2 µM

Structure (SMILES): O=C1CCCN1c1ncsc1N1CCN(C[C@H]2COc3ccccc3O2)CC1 [Compound of example 20, (S)-1-(5-(4-((2,3-Dihydrobenzo[b][1,4]dioxin-2-yl)methyl)piperazin-1-yl)thiazol-4-yl)pyrrolidin-2-one]
Kb (human alpha2C receptors): 0.394 nM
IC50 (human alpha2C receptors): 0.04 nM
Kb (human alpha2A receptors): 405 nM
IC50 (human alpha2A receptors): 9.02 µM

Structure (SMILES): c1ccc2c(c1)OC[C@H](CN1CCN(c3nncs3)CC1)O2 [Compound of example 22, (S)-2-(4-((2,3-Dihydrobenzo[b][1,4]dioxin-2-yl)methyl)piperazin-1-yl)-1,3,4-thiadiazole]
Kb (human alpha2C receptors): 1570 nM
IC50 (human alpha2C receptors): 158 nM
Kb (human alpha2A receptors): > 449 nM
IC50 (human alpha2A receptors): > 10 µM

Structure (SMILES): O=C1NCCN1c1nnc(N2CCN(C[C@H]3COc4ccccc4O3)CC2)s1 [Compound of example 25, (S)-1-(5-(4-((2,3-Dihydrobenzo[b][1,4]dioxin-2-yl)methyl)piperazin-1-yl)-1,3,4-thiadiazol-2-yl)imidazolidin-2-one]
Kb (human alpha2C receptors): 28.4 nM
IC50 (human alpha2C receptors): 2.86 nM
Kb (human alpha2A receptors): 514 nM
IC50 (human alpha2A receptors): 11.5 µM

Structure (SMILES): NC(=O)c1nsnc1N1CCN(C[C@H]2COc3ccccc3O2)CC1 [Compound of example 27, (S)-4-(4-((2,3-Dihydrobenzo[b][1,4]dioxin-2-yl)methyl)piperazin-1-yl)-1,2,5-thiadiazole-3-carboxamide]
Kb (human alpha2C receptors): 1650 nM
IC50 (human alpha2C receptors): 166 nM
Kb (human alpha2A receptors): > 449 nM
IC50 (human alpha2A receptors): > 10 µM

Structure (SMILES): CN1CCN(c2nsnc2N2CCN(C[C@H]3COc4ccccc4O3)CC2)C1=O [Compound of example 28, (S)-1-(4-(4-((2,3-Dihydrobenzo[b][1,4]dioxin-2-yl)methyl)piperazin-1-yl)-1,2,5-thiadiazol-3-yl)-3-methylimidazolidin-2-one]
Kb (human alpha2C receptors): 1070 nM
IC50 (human alpha2C receptors): 108 nM
Kb (human alpha2A receptors): > 449 nM
IC50 (human alpha2A receptors): > 10 µM

Structure (SMILES): O=C1NCCN1c1nsnc1N1CCN(C[C@H]2COc3ccccc3O2)CC1 [Compound of example 30, (S)-1-(4-(4-((2,3-Dihydrobenzo[b][1,4]dioxin-2-yl)methyl)piperazin-1-yl)-1,2,5-thiadiazol-3-yl)imidazolidin-2-one]
Kb (human alpha2C receptors): 0.527 nM
IC50 (human alpha2C receptors): 0.054 nM
Kb (human alpha2A receptors): > 449 nM
IC50 (human alpha2A receptors): > 10 µM
